Source: patent US20250214942A1, “INHIBITORS OF RECEPTOR INTERACTING PROTEIN KINASE I FOR THE TREATMENT OF DISEASE” (Board of Regents, The University of Texas System, priority 2019, published 2025)

Tested on: human monocytic cell line U937
Experiment: Human U937 cellular necroptosis assay (TNFalpha + z-VAD-FMK, Cell Titer-Glo viability)
Assay type: cell-based
Details: Homo sapiens, U-937, 22 h, U937 cells, 25 ng/mL human TNFalpha + 25 μM z-VAD-FMK, read-out: hU937 Avg IC50
Procedure: The human monocytic cell line U937 (CRL-1593.2) was purchased from ATCC. The cells were routinely maintained in RPMI-1640 Medium (Gibco, Catalog #11875-093) supplemented with 10% heat inactivated fetal bovine serum (Gibco, Catalog #16140-071), 100 units/mL penicillin and 100 μg/mL streptomycin (Gibco, Catalog #15140-122), in a humidified incubator (37° C., 5% CO2). For the assay, cells were resuspended in RPMI-1640 phenol red free Media (Gibco, Catalog #11835-030) supplemented with 10% fetal bovine serum (Sigma, Catalog #F2442), 100 units/mL penicillin and 100 ug/mL streptomycin. Cells were stimulated with 25 ng/mL human TNFalpha (Cell Sciences, Catalog #CSI15659B) and 25 μM z-VAD-FMK (R&D Systems, Catalog #FMK001) followed by seeding 5000 cells per well in a volume of 40 μL to a white, CulturPlate-384 (Perkin Elmer, Catalog #6007680). Stock solutions of the test compounds were prepared in 100% DMSO (Sigma, Catalog #D2650) and serially diluted 1:3 using 100% DMSO. Compounds were additionally diluted 1:40 in assay medium, and 10 μL/well was transferred to the plate. Following the compound addition the plate was incubated at 37° C. and 5% CO2 for 22 h. After 22 h, viability was assessed with the addition of 20 μL of Cell Titer-Glo 2.0 (Promega, Catalog #G9243). The tissue culture plate was shaken on an orbital shaker at 300 RPM for 15 minutes at rt in the dark. Luminescence was measured using a PerkinElmer Envision™ plate reader. IC50 values were calculated using a four-parameter logistic curve fit using Genedata Screener software. Results are shown below in Table 3, where the average value across multiple runs is given.

Compound | IC50 [nM]
Cc1c(F)cc(C2CC=NN2C(=O)C23CC(COc4ccc(C#N)cn4)(C2)C3)cc1F (stereo not drawn) [Example 264, 6-((3-(5-(3,5-difluoro-4-methylphenyl)-4,5-dihydro-1H-pyrazole-1-carbonyl)-bicyclo[1.1.1]pentan-1-yl)-methoxy)nicotinonitrile] | 12
N#Cc1ccc(OCC23CC(C(=O)N4N=CCC4c4ncc(F)cc4F)(C2)C3)nc1 (stereo not drawn) [Example 291, 6-((3-(5-(3,5-difluoropyridin-2-yl)-4,5-dihydro-1H-pyrazole-1-carbonyl)bicyclo-[1.1.1]pentan-1-yl)methoxy)-nicotinonitrile] | 620
N#Cc1cc2cn(CC34CC(C(=O)N5N=CCC5c5cc(F)cc(F)c5)(C3)C4)nc2cc1Cl (stereo not drawn) [Example 220, 6-chloro-2-((3-(5-(3,5-difluorophenyl)-4,5-dihydro-1H-pyrazole-1-carbonyl)-bicyclo[1.1.1]pentan-1-yl)-methyl)-2H-indazole-5-carbonitrile] | 312
N#Cc1cnc(OCC23CC(C(=O)N4[C@@H]5C[C@@H]5C[C@H]4c4cc(F)cc(F)c4)(C2)C3)cn1 [Example 209, 5-((3-((1R,3S,5R)-3-(3,5-difluorophenyl)-2-azabicyclo[3.1.0]hexane-2-carbonyl)bicyclo[1.1.1]pentan-1-yl)methoxy)pyrazine-2-carbonitrile] | 362
CC1CC(c2cccc(F)c2)N(C(=O)C23CC(Cn4ncc5cc(C#N)ccc54)(C2)C3)C1 (stereo not drawn) [Example 257, 1-((3-(2-(3-fluorophenyl)-4-methylpyrrolidine-1-carbonyl)-bicyclo[1.1.1]pentan-1-yl)-methyl)-1H-indazole-5-carbonitrile] | 2080
N#Cc1nc(C2CC2)nn1CC12CC(C(=O)N3N=CCC3c3cc(F)cc(F)c3)(C1)C2 (stereo not drawn) [Example 217, 3-cyclopropyl-1-((3-(5-(3,5-difluorophenyl)-4,5-dihydro-1H-pyrazole-1-carbonyl)-bicyclo[1.1.1]pentan-1-yl)-methyl)-1H-1,2,4-triazole-5-carbonitrile] | 99
Cc1nc(CC#N)nn1CC12CC(C(=O)N3N=CCC3c3cc(F)cc(F)c3)(C1)C2 (stereo not drawn) [Example 223, 2-(1-((3-(5-(3,5-difluoro-phenyl)-4,5-dihydro-1H-pyrazole-1-carbonyl)bicyclo-[1.1.1]pentan-1-yl)methyl)-5-methyl-1H-1,2,4-triazol-3-yl)acetonitrile] | 9740
N#Cc1cncc(C2CC=NN2C(=O)C23CC(COc4cnc(C#N)cn4)(C2)C3)c1 (stereo not drawn) [Example 284, 5-((3-(5-(5-cyanopyridin-3-yl)-4,5-dihydro-1H-pyrazole-1-carbonyl)bicyclo[1.1.1]pentan-1-yl)methoxy)pyrazine-2-carbonitrile] | 161
Cc1ccc2c(cnn2CC23CC(C(=O)N4N=CCC4c4cc(F)cc(F)c4)(C2)C3)n1 (stereo not drawn) [Example 165, (5-(3,5-difluorophenyl)-4,5-dihydro-1H-pyrazol-1-yl)(3-((5-methyl-1H-pyrazolo[4,3-b]pyridin-1-yl)methyl)-bicyclo[1.1.1]pentan-1-yl)methanone] | 193
O=C(N1N=CCC1c1cc(F)cc(F)c1)C12CC(COc3ncc(Cl)cn3)(C1)C2 (stereo not drawn) [Example 322, (3-(((5-chloropyrimidin-2-yl)oxy)methyl)bicyclo[1.1.1]-pentan-1-yl)(5-(3,5-difluoro-phenyl)-4,5-dihydro-1H-pyrazol-1-yl)methanone] | 60
N#Cc1cnc(OCC23CC(C(=O)NCc4c(F)cccc4F)(C2)C3)cn1 [Example 294, 3-(((5-cyanopyrazin-2-yl)oxy)-methyl)-N-(2,6-difluoro-benzyl)bicyclo[1.1.1]pentane-1-carboxamide] | 5610
N#Cc1cnc(OCC23CC(C(=O)N4N=CCC4c4ccc(Cl)cc4)(C2)C3)cn1 (stereo not drawn) [Example 310, 5-((3-(5-(4-chlorophenyl)-4,5-dihydro-1H-pyrazole-1-carbonyl)bicyclo[1.1.1]pentan-1-yl)methoxy)pyrazine-2-carbonitrile] | 22
